Biological target: T1, Kir3.1/Kir3.4 (Rattus norvegicus, UniProt P48548+P63251)
T1 sequence (P63251 whole entry): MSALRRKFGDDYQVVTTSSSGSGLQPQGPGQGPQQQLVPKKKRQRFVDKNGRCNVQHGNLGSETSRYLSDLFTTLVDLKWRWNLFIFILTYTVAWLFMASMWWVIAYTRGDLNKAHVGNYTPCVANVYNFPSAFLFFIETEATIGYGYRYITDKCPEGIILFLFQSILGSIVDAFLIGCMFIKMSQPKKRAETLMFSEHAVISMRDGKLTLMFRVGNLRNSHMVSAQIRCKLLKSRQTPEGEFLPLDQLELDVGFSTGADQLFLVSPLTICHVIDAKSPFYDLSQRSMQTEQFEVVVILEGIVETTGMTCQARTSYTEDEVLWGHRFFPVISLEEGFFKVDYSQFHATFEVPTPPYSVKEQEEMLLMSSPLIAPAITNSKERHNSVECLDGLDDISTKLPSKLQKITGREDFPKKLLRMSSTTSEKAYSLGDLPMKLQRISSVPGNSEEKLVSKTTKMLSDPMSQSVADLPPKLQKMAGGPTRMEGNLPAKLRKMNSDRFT
T1 sequence (P48548 whole entry): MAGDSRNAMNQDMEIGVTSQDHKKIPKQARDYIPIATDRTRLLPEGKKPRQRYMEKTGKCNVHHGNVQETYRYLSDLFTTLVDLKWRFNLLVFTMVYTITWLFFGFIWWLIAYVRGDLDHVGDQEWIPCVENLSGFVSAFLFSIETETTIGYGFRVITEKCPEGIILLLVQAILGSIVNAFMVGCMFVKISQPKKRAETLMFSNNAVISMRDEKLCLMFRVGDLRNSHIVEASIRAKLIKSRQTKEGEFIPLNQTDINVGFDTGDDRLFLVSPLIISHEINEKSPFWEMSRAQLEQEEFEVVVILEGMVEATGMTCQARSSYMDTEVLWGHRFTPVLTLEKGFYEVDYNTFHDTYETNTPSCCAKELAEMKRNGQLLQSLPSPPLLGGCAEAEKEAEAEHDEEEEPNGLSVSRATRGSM
Assay: Inhibition of rat Kir3.1/Kir3.4 expressed in HEK293 cells assessed as reduction in depolarizing voltage step-induced recombinant G-protein activated inward rectifier current by whole cell patch clamp assay
Format: cell-based

SMILES | IC50
NC(=O)[C@@H]1CCCN1CCOCC1C2CN(c3ncnc4scc(-c5ccccc5)c34)CC12 (some centres not stated) | < 500 nM
c1ccc(-c2csc3ncnc(N4CC5C(COCCN6CCCC6)C5C4)c23)cc1 (configuration not stated) | < 500 nM
c1ccc(-c2csc3ncnc(N4CCC(COCCN5CCOCC5)CC4)c23)cc1 | < 500 nM
CN1CCCC1CCOCC1CCN(c2ncnc3scc(-c4ccccc4)c23)CC1 (configuration not stated) | < 500 nM
NC(=O)[C@H]1CCCN1CCOCC1C2CN(c3ncnc4scc(-c5ccccc5)c34)CC12 (some centres not stated) | < 500 nM
Cc1sc2ncnc(N3CCC(COCCC4CCCN4C)CC3)c2c1C (configuration not stated) | < 500 nM
CCc1c(C)sc2ncnc(N3CCC(COCCC4CCCCN4C)CC3)c12 (configuration not stated) | < 500 nM
NC(=O)C1CCN(CCOCC2CCN(c3ncnc4scc(-c5ccccc5)c34)CC2)C1 (configuration not stated) | < 500 nM
CN1CCCC1CCOCC1CCN(c2ncnc3scc(-c4cccc(F)c4)c23)CC1 (configuration not stated) | < 500 nM
F[C@H]1CCN(CCOCC2CCN(c3ncnc4scc(-c5ccccc5)c34)CC2)C1 | < 500 nM
CN(C)CCCOCC1CCN(c2ncnc3scc(-c4ccccc4)c23)CC1 | < 500 nM
CCc1c(C)sc2ncnc(N3CCC(COCCN4CCCC4)CC3)c12 | < 500 nM
F[C@H]1CCN(CCOCC2C3CN(c4ncnc5scc(-c6ccccc6)c45)CC23)C1 (some centres not stated) | < 500 nM
CN1CCCCC1CCOCC1CCN(c2ncnc3scc(-c4ccccc4)c23)CC1 (configuration not stated) | < 500 nM
CC(=O)NC1CCN(CCOCC2CCN(c3ncnc4scc(-c5ccccc5)c34)CC2)C1 (configuration not stated) | < 500 nM
FC1(F)CCN(CCOCC2CCN(c3ncnc4scc(-c5ccccc5)c34)CC2)C1 | < 500 nM
CN1CCCC1CCOCC1C2CN(c3ncnc4scc(-c5ccccc5)c34)CC12 (configuration not stated) | < 500 nM
CN1CCC(OCC2CCN(c3ncnc4scc(-c5ccccc5)c34)CC2)C1 (configuration not stated) | < 500 nM
NC(=O)C1CCCN1CCOCC1CCN(c2ncnc3scc(-c4ccccc4)c23)CC1 (configuration not stated) | < 500 nM
CN1CCC(OCC2CCN(c3ncnc4scc(-c5ccccc5)c34)CC2)CC1 | < 500 nM
Fc1cccc(-c2csc3ncnc(N4CCC(COCCN5CCCC5)CC4)c23)c1 | < 500 nM
CN(C)CCOCC1CCN(c2ncnc3scc(-c4ccccc4)c23)CC1 | < 500 nM
CC(C)c1cc2c(N3CCC(COCCN4CCOCC4)CC3)ncnc2s1 | ≤ 3000 nM
COc1ncccc1-c1csc2ncnc(N3CCC(COCCN4CCCC4)CC3)c12 | < 500 nM
Fc1ccc(-c2csc3ncnc(N4CCC(COCCN5CCCC5)CC4)c23)cc1 | < 500 nM
c1ccc(-c2csc3ncnc(N4CCC(COCCN5CC6CC5CO6)CC4)c23)cc1 (configuration not stated) | < 500 nM
F[C@@H]1CCN(CCOCC2C3CN(c4ncnc5scc(-c6ccccc6)c45)CC23)C1 (some centres not stated) | < 500 nM
